These results are taken from patent US20140323300A1, “HERBICIDAL COMPOUNDS” (SYNGENTA LIMITED, priority 2011, published 2014).

Data set [1] concerns Echinochloa crus-galli (ECHCG). As to the kind of experiment: Pre-emergence glasshouse herbicide test. The data set is classed as in vivo. Conditions: pre-emergence (sprayed after one day cultivation), 1000 g/h, evaluated after 13 days, five point scale. Summed up: (§1)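 Damage was rated 13 days after treatment on a five-point scale (1 = 0–19%, 5 = 80–100%). The compound, formulated in 50:50 acetone/water with 0.5% Tween 20, was sprayed at 1000 g/h on pots one day (pre) or 8 days (post) after sowing, kept in a glasshouse at 24/16° C, 14 h light, 65% humidity.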

For data set [2], the system named is Ipomoea hederacea (IPOHE). Description: Pre-emergence glasshouse herbicide test. The data set is classed as in vivo. To be noted: pre-emergence (sprayed after one day cultivation), 1000 g/h, evaluated after 13 days, five point scale. Summed up:
as §1

Data set [3] relates to Amaranthus retoflexus (AMARE). As to the kind of experiment: Pre-emergence glasshouse herbicide test. The format is in vivo. Conditions: pre-emergence (sprayed after one day cultivation), 1000 g/h, evaluated after 13 days, five point scale. In a few lines:
as §1

Data set [4] deals with Solanum nigrum (SOLNI). As to the kind of experiment: Pre-emergence glasshouse herbicide test. To be noted: pre-emergence (sprayed after one day cultivation), 1000 g/h, evaluated after 13 days, five point scale. The format is in vivo. Summed up:
as §1

The test system of data set [5] is Setaria faberi (SETFA). Description: Pre-emergence glasshouse herbicide test. The data set is classed as in vivo. Conditions: pre-emergence (sprayed after one day cultivation), 1000 g/h, evaluated after 13 days, five point scale. Summed up:
as §1

Data set [6] relates to Alopecurus myosuroides (ALOMY). Description: Pre-emergence glasshouse herbicide test. To be noted: pre-emergence (sprayed after one day cultivation), 1000 g/h, evaluated after 13 days, five point scale. The data set is classed as in vivo. In a few lines: as §1
Data set [7] deals with Echinochloa crus-galli (ECHCG). As to the kind of experiment: Post-emergence glasshouse herbicide test. Conditions: post-emergence (sprayed after 8 days cultivation), 1000 g/h, evaluated after 13 days, five point scale. The data set is classed as in vivo. In a few lines: as §1
Data set [8] concerns Ipomoea hederacea (IPOHE). As to the kind of experiment: Post-emergence glasshouse herbicide test. The data set is classed as in vivo. Conditions: post-emergence (sprayed after 8 days cultivation), 1000 g/h, evaluated after 13 days, five point scale. In a few lines:
as §1

In data set [9] the test system is Amaranthus retoflexus (AMARE). As to the kind of experiment: Post-emergence glasshouse herbicide test. Conditions: post-emergence (sprayed after 8 days cultivation), 1000 g/h, evaluated after 13 days, five point scale. The format is in vivo. In a few lines: as §1
The subject of data set [10] is Solanum nigrum (SOLNI). Description: Post-emergence glasshouse herbicide test. To be noted: post-emergence (sprayed after 8 days cultivation), 1000 g/h, evaluated after 13 days, five point scale. The data set is classed as in vivo. In a few lines:
as §1

For data set [11], the system named is Setaria faberi (SETFA). Description: Post-emergence glasshouse herbicide test. Conditions: post-emergence (sprayed after 8 days cultivation), 1000 g/h, evaluated after 13 days, five point scale. The data set is classed as in vivo. In a few lines:
as §1

Data set [12] concerns Alopecurus myosuroides (ALOMY). As to the kind of experiment: Post-emergence glasshouse herbicide test. The format is in vivo. Conditions: post-emergence (sprayed after 8 days cultivation), 1000 g/h, evaluated after 13 days, five point scale. In a few lines: as §1

As for `C=C(C)C1C=NN(c2ccc(C(F)(F)F)cc2S(C)(=O)=O)C(=O)C1=O` (stereo not shown) [Compound 1.039, 4-Isopropenyl-1-[2-methylsulfonyl-4-(trifluoromethyl)phenyl]-4H-pyridazine-5,6-dione], the melting point (in general, the temperature of the solid-liquid transition) lay within 144 to 147 °C. For the same compound, the “percentage damage caused to the plant, PRE Application ECHCG” value in data set [1] is 5 (5=80-100%). Also, the “percentage damage caused to the plant, PRE Application IPOHE” value in data set [2] is reported as 5 (5=80-100%). The “percentage damage caused to the plant, PRE Application AMARE” value in [3] is 5 (5=80-100%). The “percentage damage caused to the plant, PRE Application SOLNI” value with Solanum nigrum (SOLNI) [4] is listed as 5 (5=80-100%). The “percentage damage caused to the plant, PRE Application SETFA” value with Setaria faberi (SETFA) [5] is 5 (5=80-100%). Further, in data set [6], the “percentage damage caused to the plant, PRE Application ALOMY” value is recorded as 5 (5=80-100%). Further, the “percentage damage caused to the plant, POST Application ECHCG” value in data set [7] is listed as 5 (5=80-100%). Further, the “percentage damage caused to the plant, POST Application IPOHE” value in data set [8] is recorded as 5 (5=80-100%). In addition, in data set [9], the “percentage damage caused to the plant, POST Application AMARE” value is reported as 5 (5=80-100%). In the data set with Solanum nigrum (SOLNI) [10], the “percentage damage caused to the plant, POST Application SOLNI” value is reported as 5 (5=80-100%). Moreover, the “percentage damage caused to the plant, POST Application SETFA” value in the data set on Setaria faberi (SETFA) [11] was 5 (5=80-100%). Moreover, the “percentage damage caused to the plant, POST Application ALOMY” value in [12] is on record as 5 (5=80-100%).

For `CS(=O)(=O)c1cc(C(F)(F)F)ccc1-n1ncc(Br)c(O)c1=O` [Compound 1.032], in data set [1], the “percentage damage caused to the plant, PRE Application ECHCG” value is reported as 5 (5=80-100%). Further, the “percentage damage caused to the plant, PRE Application IPOHE” value in [2] was 5 (5=80-100%). Further, in data set [3], the “percentage damage caused to the plant, PRE Application AMARE” value was 5 (5=80-100%). The “percentage damage caused to the plant, PRE Application SOLNI” value in the data set with Solanum nigrum (SOLNI) [4] is reported as 5 (5=80-100%). The “percentage damage caused to the plant, PRE Application SETFA” value with Setaria faberi (SETFA) [5] is reported as 5 (5=80-100%). Further, the “percentage damage caused to the plant, PRE Application ALOMY” value in [6] is 5 (5=80-100%). The “percentage damage caused to the plant, POST Application ECHCG” value in data set [7] is 5 (5=80-100%). For the same compound, in data set [8], the “percentage damage caused to the plant, POST Application IPOHE” value is recorded as 5 (5=80-100%). The “percentage damage caused to the plant, POST Application AMARE” value in data set [9] is given as 5 (5=80-100%). In addition, the “percentage damage caused to the plant, POST Application SOLNI” value with Solanum nigrum (SOLNI) [10] is 5 (5=80-100%). Moreover, in the data set on Setaria faberi (SETFA) [11], the “percentage damage caused to the plant, POST Application SETFA” value was 5 (5=80-100%). Moreover, the “percentage damage caused to the plant, POST Application ALOMY” value in data set [12] is on record as 5 (5=80-100%).

With `Cc1nc(C(F)(F)F)ccc1-n1ncc(Br)c(O)c1=O` [Compound 1.023], the “percentage damage caused to the plant, PRE Application ECHCG” value in data set [1] is 5 (5=80-100%). Also, in data set [2], the “percentage damage caused to the plant, PRE Application IPOHE” value is 5 (5=80-100%). Also, the “percentage damage caused to the plant, PRE Application AMARE” value in [3] is on record as 5 (5=80-100%). Also, the “percentage damage caused to the plant, PRE Application SOLNI” value in the data set with Solanum nigrum (SOLNI) [4] is 5 (5=80-100%). In addition, the “percentage damage caused to the plant, PRE Application SETFA” value in the data set on Setaria faberi (SETFA) [5] is given as 5 (5=80-100%). The “percentage damage caused to the plant, PRE Application ALOMY” value in data set [6] is on record as 3 (3=40-59%). The “percentage damage caused to the plant, POST Application ECHCG” value in data set [7] was 5 (5=80-100%). The “percentage damage caused to the plant, POST Application IPOHE” value in data set [8] is recorded as 5 (5=80-100%). The “percentage damage caused to the plant, POST Application AMARE” value in data set [9] was 5 (5=80-100%). The “percentage damage caused to the plant, POST Application SOLNI” value with Solanum nigrum (SOLNI) [10] was 5 (5=80-100%). The “percentage damage caused to the plant, POST Application SETFA” value with Setaria faberi (SETFA) [11] is listed as 5 (5=80-100%). In data set [12], the “percentage damage caused to the plant, POST Application ALOMY” value is 3 (3=40-59%).

In the case of `CS(=O)(=O)c1cc(C(F)(F)F)ccc1-n1ncc(S(C)(=O)=O)c(O)c1=O` [Compound 1.042], in [1], the “percentage damage caused to the plant, PRE Application ECHCG” value is 1 (1=0-19%). The “percentage damage caused to the plant, PRE Application IPOHE” value in data set [2] is on record as 1 (1=0-19%). In addition, in data set [3], the “percentage damage caused to the plant, PRE Application AMARE” value was 2 (2=20-39%). Besides, the “percentage damage caused to the plant, PRE Application SOLNI” value in the data set with Solanum nigrum (SOLNI) [4] was 2 (2=20-39%). Besides, the “percentage damage caused to the plant, PRE Application SETFA” value with Setaria faberi (SETFA) [5] was 1 (1=0-19%). Further, the “percentage damage caused to the plant, PRE Application ALOMY” value in data set [6] is recorded as 1 (1=0-19%). Moreover, the “percentage damage caused to the plant, POST Application ECHCG” value in [7] is reported as 1 (1=0-19%). In data set [8], the “percentage damage caused to the plant, POST Application IPOHE” value is recorded as 1 (1=0-19%). For the same compound, the “percentage damage caused to the plant, POST Application AMARE” value in data set [9] is recorded as 2 (2=20-39%). Moreover, the “percentage damage caused to the plant, POST Application SOLNI” value in the data set with Solanum nigrum (SOLNI) [10] was 2 (2=20-39%). For the same compound, the “percentage damage caused to the plant, POST Application SETFA” value in the data set with Setaria faberi (SETFA) [11] is recorded as 1 (1=0-19%). In data set [12], the “percentage damage caused to the plant, POST Application ALOMY” value was 1 (1=0-19%).

Turning to `Cc1nc(C(F)(F)F)ccc1-n1ncc(S(C)(=O)=O)c(O)c1=O` [Compound 1.029], in [1], the “percentage damage caused to the plant, PRE Application ECHCG” value is on record as 4 (4=60-79%). The “percentage damage caused to the plant, PRE Application IPOHE” value in data set [2] is listed as 2 (2=20-39%). Besides, the “percentage damage caused to the plant, PRE Application AMARE” value in data set [3] was 3 (3=40-59%). For the same compound, the “percentage damage caused to the plant, PRE Application SOLNI” value in the data set with Solanum nigrum (SOLNI) [4] is listed as 4 (4=60-79%). Moreover, the “percentage damage caused to the plant, PRE Application SETFA” value in the data set on Setaria faberi (SETFA) [5] was 4 (4=60-79%). Besides, in data set [6], the “percentage damage caused to the plant, PRE Application ALOMY” value is 1 (1=0-19%). In data set [7], the “percentage damage caused to the plant, POST Application ECHCG” value is given as 4 (4=60-79%). In [8], the “percentage damage caused to the plant, POST Application IPOHE” value is 2 (2=20-39%). The “percentage damage caused to the plant, POST Application AMARE” value in [9] is listed as 3 (3=40-59%). In addition, the “percentage damage caused to the plant, POST Application SOLNI” value in the data set on Solanum nigrum (SOLNI) [10] was 4 (4=60-79%). For the same compound, the “percentage damage caused to the plant, POST Application SETFA” value in the data set on Setaria faberi (SETFA) [11] was 4 (4=60-79%). Moreover, the “percentage damage caused to the plant, POST Application ALOMY” value in data set [12] is listed as 1 (1=0-19%).
